According to article PMC9848300, “Discovery of novel enasidenib analogues targeting inhibition of mutant isocitrate dehydrogenase 2 as antileukaemic agents” (Journal of Enzyme Inhibition and Medicinal Chemistry, 2023):

What was measured:
Assay type in all cases: cell-based
OVCAR-4 = assay: NCI 60 antitumor screening (single dose); details: Homo sapiens; OVCAR-4 (ovarian cancer), single dose 10 μM; read-out: Growth inhibition percentage (GI %)
Experimental: (§1) Initially, the anticancer effects of target compounds have been assessed at a single (10 μM) dose. The obtained data have been reported as mean-graph of the percent growth (G%) of the treated cancer cells. Percentage growth inhibition (GI%) is calculated (100 − G%) and pronounced in Table 1. […] Target compounds in series (III) with manipulated linkers disclosed lower potency. Superiorly, eight s-triazine derivatives from the three series (6a, 6c, 6d, 7a, 7g, 7i, 7l, and 8b) have shown potent broad-spectrum anticancer activity against most the examined cell lines, whereas most of the remaining triazine derivatives, 20 derivatives, have exerted selective anti-proliferative actions towards certain cancer cell lines (Supplementary).
(§2) The antitumor screening was performed for 60 human cancer cell lines under the protocol of NCI (www.dtp.nci.nih.gov), the Drug Evaluation Branch, Bethesda, MD. All submitted compounds were nominated based on the degree of structural diversity and computer modelling techniques for evaluation of their anticancer activity. The screening process for antineoplastic activity passes through two successive levels, starting with the assessment of target compounds at a single dose of 10 μM against 60 cancer cell lines on nine types of human tumours. These experiments were done on a triplicate following. The output from the single‐dose screening was covered as a mean graph, and then, analysed by the COMPARE program. Finally, the compounds which disclosed subpanel cancer cell growth (G %) equal to or less than 10% in at least eight cancer cell lines get to pass the assessment against the 60 cell lines at five doses (0.01–100 μM). By using GraphPad Prism version 9.0 (Graphpad Software Inc., La Jolla, CA), GI50, TGI, as well as LC50 dose‐response parameters were computed and presented for each compound (Supplementary information)[55–57].

TK-10 = assay: NCI 60 antitumor screening (single dose); details: Homo sapiens; TK-10 (renal cancer), single dose 10 μM; read-out: Growth inhibition percentage (GI %)
Experimental: as §1, §2

NCI-H322M = assay: NCI 60 antitumor screening (single dose); details: Homo sapiens; NCI-H322M (non-small cell lung cancer), single dose 10 μM; read-out: Growth inhibition percentage (GI %)
Experimental: as §1, §2

NCI-H226 = assay: NCI 60 antitumor screening (single dose); details: Homo sapiens; NCI-H226 (non-small cell lung cancer), single dose 10 μM; read-out: Growth inhibition percentage (GI %)
Experimental: as §1, §2

SK-OV-3 = assay: NCI 60 antitumor screening (single dose); details: Homo sapiens; SK-OV-3 (ovarian cancer), single dose 10 μM; read-out: Growth inhibition percentage (GI %)
Experimental: as §1, §2

HOP-62 = assay: NCI 60 antitumor screening (single dose); details: Homo sapiens; HOP-62 (non-small cell lung cancer), single dose 10 μM; read-out: Growth inhibition percentage (GI %)
Experimental: as §1, §2

SF-268 = assay: NCI 60 antitumor screening (single dose); details: Homo sapiens; SF-268 (CNS cancer), single dose 10 μM; read-out: Growth inhibition percentage (GI %)
Experimental: as §1, §2

HCC-2998 = assay: NCI 60 antitumor screening (single dose); details: Homo sapiens; HCC-2998 (colon cancer), single dose 10 μM; read-out: Growth inhibition percentage (GI %)
Experimental: as §1, §2

HS 578T = assay: NCI 60 antitumor screening (single dose); details: Homo sapiens; HS 578T (breast cancer), single dose 10 μM; read-out: Growth inhibition percentage (GI %)
Experimental: as §1, §2

OVCAR-3 = assay: NCI 60 antitumor screening (single dose); details: Homo sapiens; OVCAR-3 (ovarian cancer), single dose 10 μM; read-out: Growth inhibition percentage (GI %)
Experimental: as §1, §2

PC-3 = assay: NCI 60 antitumor screening (single dose); details: Homo sapiens; PC-3 (prostate cancer), single dose 10 μM; read-out: Growth inhibition percentage (GI %)
Experimental: as §1, §2

A549/ATCC = assay: NCI 60 antitumor screening (single dose); details: Homo sapiens; A549/ATCC (non-small cell lung cancer), single dose 10 μM; read-out: Growth inhibition percentage (GI %)
Experimental: as §1, §2

CAKI-1 = assay: NCI 60 antitumor screening (single dose); details: Homo sapiens; CAKI-1 (renal cancer), single dose 10 μM; read-out: Growth inhibition percentage (GI %)
Experimental: as §1, §2

U251 = assay: NCI 60 antitumor screening (single dose); details: Homo sapiens, U-251; U251 (CNS cancer), single dose 10 μM; read-out: Growth inhibition percentage (GI %)
Experimental: as §1, §2

NCI-H23 = assay: NCI 60 antitumor screening (single dose); details: Homo sapiens; NCI-H23 (non-small cell lung cancer), single dose 10 μM; read-out: Growth inhibition percentage (GI %)
Experimental: as §1, §2

MCF7 = assay: NCI 60 antitumor screening (single dose); details: Homo sapiens; MCF7 (breast cancer), single dose 10 μM; read-out: Growth inhibition percentage (GI %)
Experimental: as §1, §2

NCI-H460 = assay: NCI 60 antitumor screening (single dose); details: Homo sapiens; NCI-H460 (non-small cell lung cancer), single dose 10 μM; read-out: Growth inhibition percentage (GI %)
Experimental: as §1, §2

OVCAR-5 = assay: NCI 60 antitumor screening (single dose); details: Homo sapiens; OVCAR-5 (ovarian cancer), single dose 10 μM; read-out: Growth inhibition percentage (GI %)
Experimental: as §1, §2

KM 12 = assay: NCI 60 antitumor screening (single dose); details: Homo sapiens, KM12; KM 12 (colon cancer), single dose 10 μM; read-out: Growth inhibition percentage (GI %)
Experimental: as §1, §2

OVCAR-8 = assay: NCI 60 antitumor screening (single dose); details: Homo sapiens; OVCAR-8 (ovarian cancer), single dose 10 μM; read-out: Growth inhibition percentage (GI %)
Experimental: as §1, §2

SNB-19 = assay: NCI 60 antitumor screening (single dose); details: Homo sapiens; SNB-19 (CNS cancer), single dose 10 μM; read-out: Growth inhibition percentage (GI %)
Experimental: as §1, §2

NCI-H522 = assay: NCI 60 antitumor screening (single dose); details: Homo sapiens; NCI-H522 (non-small cell lung cancer), single dose 10 μM; read-out: Growth inhibition percentage (GI %)
Experimental: as §1, §2

RXF 393 = assay: NCI 60 antitumor screening (single dose / five doses); details: Homo sapiens; RXF 393 (renal cancer), single dose 10 μM; read-out: Growth inhibition percentage (GI %)
SR = assay: as above; details: Homo sapiens; SR (leukaemia), single dose 10 μM; read-out: Growth inhibition percentage (GI %)
HOP-92 = assay: as above; details: Homo sapiens; HOP-92 (non-small cell lung cancer), single dose 10 μM; read-out: Growth inhibition percentage (GI %)
MDA-MB-435 = assay: as above; details: Homo sapiens; MDA-MB-435 (melanoma), single dose 10 μM; read-out: Growth inhibition percentage (GI %)

Structure (SMILES): Brc1ccccc1/C=N/Nc1nc(N/N=C/c2ccccc2Br)nc(N2CCOCC2)n1 [compound 6b, 2,4-Bis[(E)-2-[(2-bromophenyl)methylidene]hydrazin-1-yl]-6-(morpholin-4-yl)-1,3,5-triazine]
- inhibition at 10 µM (OVCAR-4): 3.79%
- inhibition at 10 µM (TK-10): 0.58%
- inhibition at 10 µM (NCI-H322M): 3.22%
- inhibition at 10 µM (NCI-H226): 4.87%
- inhibition at 10 µM (SK-OV-3): -13.9%
- inhibition at 10 µM (HOP-62): -8.36%
- inhibition at 10 µM (SF-268): -2.5%
- inhibition at 10 µM (HCC-2998): 29.1%
- inhibition at 10 µM (HS 578T): -14.4%
- inhibition at 10 µM (OVCAR-3): 14.8%
- inhibition at 10 µM (PC-3): 16%
- inhibition at 10 µM (A549/ATCC): 2.89%
- inhibition at 10 µM (CAKI-1): -8.66%
- inhibition at 10 µM (U251): 3.53%
- inhibition at 10 µM (NCI-H23): -4.52%
- inhibition at 10 µM (MCF7): 14.8%
- inhibition at 10 µM (NCI-H460): -2.92%
- inhibition at 10 µM (OVCAR-5): -11.2%
- inhibition at 10 µM (KM 12): 10.9%
- inhibition at 10 µM (OVCAR-8): 3.39%
- inhibition at 10 µM (SNB-19): -1.04%
- inhibition at 10 µM (NCI-H522): 13.4%
- inhibition at 10 µM (RXF 393): 30.4%
- inhibition at 10 µM (SR): 36.1%
- inhibition at 10 µM (HOP-92): -12.3%
- inhibition at 10 µM (MDA-MB-435): 2.29%

Structure (SMILES): Brc1cccc(/C=N/Nc2nc(N/N=C/c3cccc(Br)c3)nc(N3CCCCC3)n2)c1 [compound 7c, 2,4-Bis[(E)-2-[(3-Bromophenyl)methylidene]hydrazin-1-yl]-6-(piperidin-1-yl)-1,3,5-triazine]
- inhibition at 10 µM (OVCAR-4): 11.6%
- inhibition at 10 µM (TK-10): -27.6%
- inhibition at 10 µM (NCI-H322M): -3.53%
- inhibition at 10 µM (NCI-H226): 8.12%
- inhibition at 10 µM (SK-OV-3): -9%
- inhibition at 10 µM (HOP-62): -8.46%
- inhibition at 10 µM (SF-268): -5.8%
- inhibition at 10 µM (HCC-2998): -2.01%
- inhibition at 10 µM (HS 578T): -21.2%
- inhibition at 10 µM (OVCAR-3): 0.95%
- inhibition at 10 µM (PC-3): 19.8%
- inhibition at 10 µM (A549/ATCC): 10.6%
- inhibition at 10 µM (CAKI-1): 0.79%
- inhibition at 10 µM (U251): 3.1%
- inhibition at 10 µM (NCI-H23): -5.83%
- inhibition at 10 µM (MCF7): 20.2%
- inhibition at 10 µM (NCI-H460): -2.41%
- inhibition at 10 µM (OVCAR-5): -15.9%
- inhibition at 10 µM (KM 12): -6.72%
- inhibition at 10 µM (OVCAR-8): 2.62%
- inhibition at 10 µM (SNB-19): -2.24%
- inhibition at 10 µM (NCI-H522): 8.55%
- inhibition at 10 µM (RXF 393): -16.1%
- inhibition at 10 µM (SR): 12.9%
- inhibition at 10 µM (HOP-92): -12.8%
- inhibition at 10 µM (MDA-MB-435): 4.57%

Structure (SMILES): Fc1cccc(/C=N/Nc2nc(N/N=C/c3cccc(F)c3)nc(N3CCCCC3)n2)c1 [compound 7e, 2,4-Bis[(E)-2-[(3-Fluorophenyl)methylidene]hydrazin-1-yl]-6-(piperidin-1-yl)-1,3,5-triazine]
- inhibition at 10 µM (OVCAR-4): 13.7%
- inhibition at 10 µM (TK-10): -20.6%
- inhibition at 10 µM (NCI-H322M): -8.36%
- inhibition at 10 µM (NCI-H226): 17.9%
- inhibition at 10 µM (SK-OV-3): -14.6%
- inhibition at 10 µM (HOP-62): -7.48%
- inhibition at 10 µM (SF-268): 0.36%
- inhibition at 10 µM (HCC-2998): 0.77%
- inhibition at 10 µM (HS 578T): -13.2%
- inhibition at 10 µM (OVCAR-3): 10.6%
- inhibition at 10 µM (PC-3): 31.4%
- inhibition at 10 µM (A549/ATCC): 10.6%
- inhibition at 10 µM (CAKI-1): 9.66%
- inhibition at 10 µM (U251): 5.46%
- inhibition at 10 µM (NCI-H23): 9.62%
- inhibition at 10 µM (MCF7): 26.7%
- inhibition at 10 µM (NCI-H460): 8.63%
- inhibition at 10 µM (OVCAR-5): -8.1%
- inhibition at 10 µM (KM 12): 17.9%
- inhibition at 10 µM (OVCAR-8): 14.6%
- inhibition at 10 µM (SNB-19): 3.96%
- inhibition at 10 µM (NCI-H522): 8.08%
- inhibition at 10 µM (RXF 393): -12.5%
- inhibition at 10 µM (SR): 31.9%
- inhibition at 10 µM (HOP-92): -16%
- inhibition at 10 µM (MDA-MB-435): 8.23%

Structure (SMILES): COC(=O)C(Cc1ccccc1)Nc1nc(NC(Cc2ccccc2)C(=O)OC)nc(N2CCOCC2)n1 (centres unmarked) [compound 8c, Methyl 2-({4-[(1-methoxy-1-oxo-3-phenylpropan-2-yl)amino]-6-(morpholin-4-yl)-1,3,5-triazin-2-yl}amino)-3-phenylpropanoate]
- inhibition at 10 µM (OVCAR-4): -6.53%
- inhibition at 10 µM (TK-10): -3.4%
- inhibition at 10 µM (NCI-H322M): 2.57%
- inhibition at 10 µM (NCI-H226): -1.61%
- inhibition at 10 µM (SK-OV-3): -2.71%
- inhibition at 10 µM (HOP-62): 2.66%
- inhibition at 10 µM (SF-268): -2.56%
- inhibition at 10 µM (HCC-2998): -9.86%
- inhibition at 10 µM (HS 578T): -1.3%
- inhibition at 10 µM (OVCAR-3): -11.1%
- inhibition at 10 µM (PC-3): -2.72%
- inhibition at 10 µM (A549/ATCC): -8.33%
- inhibition at 10 µM (CAKI-1): 13.2%
- inhibition at 10 µM (U251): -5.23%
- inhibition at 10 µM (NCI-H23): -6.51%
- inhibition at 10 µM (MCF7): 2.21%
- inhibition at 10 µM (NCI-H460): -6.88%
- inhibition at 10 µM (OVCAR-5): -6.25%
- inhibition at 10 µM (KM 12): 0.3%
- inhibition at 10 µM (OVCAR-8): 0.4%
- inhibition at 10 µM (SNB-19): -3.58%
- inhibition at 10 µM (NCI-H522): 9.02%
- inhibition at 10 µM (RXF 393): -12.7%
- inhibition at 10 µM (SR): -0.37%
- inhibition at 10 µM (HOP-92): -18.5%
- inhibition at 10 µM (MDA-MB-435): -4.67%
